From patent US8834919B2, “Lipid emulsions in the treatment of systemic poisoning” (priority 1998, dated 2014)

Assays:
[1] = octanol:water; P = [organic]/[aqueous]; cited from earlier work
Male Sprague-Dawley rats = test: Pretreatment with lipid emulsion: dose-response to bupivacaine induced asystole in rats (protocol 1); format: in vivo, rat
Text: Studies were undertaken to assess the ability of a lipid emulsion to shift the dose-response to drug-induced asystole (heart stoppage) in rats. Pretreatment with a lipid emulsion increased the dose of bupivacaine (a local anesthetic) required to induce asystole. Racemic bupivacaine hydrochloride was purchased from Sigma (St. Louis, Mo.) while tritiated bupivacaine was purchased from Moravek Biochemicals (Brea, Calif.). Intralipid® was purchased from Baxter Healthcare (Deerfield, Ill.). Male Sprague-Dawley rats weighing between about 250 grams to about 370 grams were used in all experiments.
Animals were first anesthetized in a bell jar with isoflurane to allow intubation, then mechanically ventilated with about 1.75% isoflurane in about 100% oxygen using a Harvard rodent ventilatory model 680 in conjunction with a tidal volume of 3 ml and a starting rate of about 40 breaths per minute. […] Electrocardiogram (BCG) was monitored via three subcutaneous needle electrodes in each rat. […]
All animals were allowed to stabilize for about 15 minutes while arterial blood pressure and ECG were monitored. […]
Immediately following pretreatment, all animals received an infusion of about 0.75% bupivacaine via the internal iliac catheter at a rate of 10 mg/kg/min to an end point of about ten seconds of asystole. […] The cumulative lethal dose of bupivacaine was calculated in mg/kg for all animals. […]

[2] = Bupivacaine lipid:aqueous partition in a mixture of Intralipid and rat plasma; format: physicochemical
Experimental: The bupivacaine lipid:aqueous partition coefficient was determined for a mixture of Intralipid® and rat plasma. Blood obtained from rats by direct heart puncture under halothane anesthesia was centrifuged and the plasma was separated. Equal volumes of about 30% Intralipid® and plasma (approximately 2 ml each) were combined and vortexed. Approximately 1.0 μCi of titriated bupivacaine (specific activity 0.81 Ci/mole) was added to the mixture to a final bupivacaine concentration of about 93 μg/ml. This mixture was vortexed again then separated into aliquots of about 1 ml. These aliquots were allowed to sit undisturbed for about one hour at about 38° C., then centrifuged at about 10,000 g for about 10 minutes. High speed centrifugation separated each of these mixtures into a clear aqueous phase (about 0.85 ml) under a lipid phase (about 0.15 ml). The latter comprised a clear layer beneath a very thin white cap. The cap was removed then redissolved in saline to a total volume of about 1 ml. Aliquots of this solution and the aqueous plasma phase were then analyzed for tritiated bupivacaine content by liquid scintillation counting. The bupivacaine lipid:aqueous partition coefficient was given by the ratio of bupivacaine in the combined lipid phase (following correction for saline dilution) to the bupivacaine in the aqueous phase. This experiment was performed in triplicate.

[3] = Resuscitation from a toxic bupivacaine dose with lipid emulsion (protocol 2); conditions: male, Sprague-Dawley, rat, in vivo, iv, resuscitation with saline infusion after iv bupivacaine bolus; probit analysis
Experimental: Bupivacaine dose and plasma concentrations were analyzed by Kruskal-Wallis one way analysis of variance on ranks. Post hoc testing of both data sets was performed by Student-Newman-Keul's method for multiple comparisons (SigmaStat, Jandel Scientific/San Rafael, Calif.). Cumulative bupivacaine dose data were nonparametric and median values were compared by differences of ranks. Plasma bupivacaine concentration data were parametric and differences in mean values were evaluated. Probit analysis (CalcuSyn, Biosoft/Cambridge, England) was used to compare bupivacaine LD50 values in the saline and lipid portions. The difference in survival of the two groups at 15 mg/kg bupivacaine was further evaluated using a z test of proportions. Statistical significance in all experiments was taken as p less than or equal to 0.05.
Experiments were performed to evaluate the ability of a lipid emulsion to resuscitate an animal from a toxic dose of bupivacaine. All animals were anaesthetized, instrumented and stabilized at about 1.75% isoflurane as described in Example 1, and arterial blood pressure and ECG were continuously monitored. […] Survival was scored about 5 minutes after the bupivacaine bolus and required both heart rate greater than about 100 beats per minute and systolic blood pressure greater than about 60 mmHg. […]

[4] = format: in vivo, rat; conditions: saline pretreatment (group 1); +/- SEM
Experimental: Immediately following pretreatment, all animals received an infusion of about 0.75% bupivacaine via the internal iliac catheter at a rate of 10 mg/kg/min to an end point of about ten seconds of asystole. Blood was then drawn from the aorta into a heparinized syringe for plasma bupivacaine determinations. The cumulative lethal dose of bupivacaine was calculated in mg/kg for all animals.
Plasma bupivacaine concentrations were determined by high performance liquid chromatograph (HPLC) after the samples had been extracted with hexane. The method of hexane extraction was validated with bupivacaine spiked samples and provided greater than about 95% recovery of bupivacaine from both normal and lipemic plasma. Thus, plasma bupivacaine concentrations reflected total bupivacaine content in both the aqueous and lipid phases of the specimen. […] The drugs were detected at a wavelength of about 215 nm.
Bupivacaine dose and plasma concentrations were analyzed by Kruskal-Wallis one way analysis of variance on ranks. […] Plasma bupivacaine concentration data were parametric and differences in mean values were evaluated. […] The difference in survival of the two groups at 15 mg/kg bupivacaine was further evaluated using a z test of proportions. […]

rats = test: Pretreatment with lipid emulsion: cocaine toxicity in rats; format: in vivo, rat; conditions: control (saline), cocaine iv 5 mg/kg/min
Experimental: Because of the significant potential benefit, experiments were performed to test an infusion of a lipid emulsion as a method of treating cocaine toxicity. Anesthetized, ventilated rats were infused with a lipid emulsion (20% Intralipid® at 10 ml/kg for 2 minutes) and then administered an intravenous infusion of cocaine at 5 mg/kg/min to hypotension (blood pressure is less than 40 mmHg) or asystole (no heartbeat for 5 seconds). […] Thus, pretreatment with a lipid emulsion composition shifts the dose-response of cocaine in much the same way as bupivacaine. This is an expected result given the similar properties and effects between cocaine and bupivacaine. These findings indicate that lipid infusion can be used to treat patients experiencing acute cardiovascular compromise in cocaine overdose.

## CCCN1CCCC[C@H]1C(=O)Nc1c(C)cccc1C [ropivacaine]
[1]
  logP: 3.11

## Cc1cccc(C)c1NC(=O)C1CCCCN1C (stereo not drawn) [mepivacaine]
[1]
  logP: 2.04

## CCCCN1CCCCC1C(=O)Nc1c(C)cccc1C (racemic) [bupivacaine]
Male Sprague-Dawley rats; saline pretreatment (group 1), 0.75% bupivacaine 10 mg/kg/min to asystole, n=6
  Median bupivacaine lethal dose: 17.8 mg/kg
Male Sprague-Dawley rats; single animal receiving saline pretreatment
  lethal bupivacaine dose, lower end of range among all animals: about 12.7 mg/kg
[2]; equal volumes of about 30% Intralipid and plasma, lipid volume about 15% of total
  percent of total bupivacaine dissolved in the lipid phase: about 75.3%
[2]; equal volumes of about 30% Intralipid and rat plasma, about 38 °C, about 93 μg/ml, +/- standard error, triplicate
  lipid:aqueous ratio of bupivacaine concentrations: 11.9+/−1.77
[3]
  LD50 at 5 min: 12.5 mg/kg
[1]
  logP: 3.64
[4]
  mean plasma bupivacaine concentration at the time of asystole: 93.3 ± 7.6 µg/mL

## COC(=O)[C@H]1[C@@H](OC(=O)c2ccccc2)C[C@@H]2CC[C@H]1N2C [cocaine]
rats
  time to asystole: 368 ± 27 s
rats; n=8
  mean time to hypotension (40 mmHg): 143 ± 22 s

## CCCCNc1ccc(C(=O)OCCN(C)C)cc1 [tetracaine]
[1]
  logP: 3.49

## CC(NC(C)(C)C)C(=O)c1cccc(Cl)c1 (stereo not drawn) [bupropion]
[1]
  logP: 3.47

## Nc1nnc(-c2cccc(Cl)c2Cl)c(N)n1 [lamotrigine]
[1]
  logP: −0.19

## COc1ccc([C@@H]2Sc3ccccc3N(CCN(C)C)C(=O)[C@@H]2OC(C)=O)cc1 [diltiazem]
[1]
  logP: 4.53
